Measurements taken from PMC7377376, “Drug targeting CYP2E1 for the treatment of early-stage alcoholic steatohepatitis” (PLoS ONE, 2020).
pKi: −log10 of the molar value. Where two headings read alike, the source gives them in different places. Values belong to the compound of their own block, whether it stands above or below them.

Columns and labels:
[1] = system: CYP2E1; settings: cited from earlier work
[2] = system: CYP2E1; settings: cited from earlier work; remark: listed apart in the source
[3] = molecular target: T1, human cytochrome P450 2E1 (Homo sapiens, UniProt P05181); assay: Steady-state p-nitrophenol oxidation, CYP2E1 inhibition in SUPERSOMES; assay type: biochemical
T1 construct: purchased BD Biosciences
Description: Initial velocities of the oxidation of p-nitrophenol (p-NP) to p-nitrocatechol by human cytochrome P450 2E1 were determined by measuring the absorption at 535 nm or 546 nm to determine product formation as described before.
Alternatively, 100 mM HEPES pH 7.6 was additionally used for the enzyme kinetic measurements. A final concentration of either 50 nM enzyme in form of SUPERSOMES™ from BD Biosciences or microsomes in case of cell culture experiments was added. Reaction was initiated by adding 500 μM (enzyme kinetic measurements) or 0.1 mM (cell culture experiments) NADPH after preincubation at 37° C and stopped by adding 20% trichloroacetic acid (TCA) after 30 minutes to ensure linearity of product formation. The protein concentration for the microsomal fraction was determined by Bradford assay to calculate the results expressed as units of specific activity defined as the amount of enzyme that consumes 1 μmol/L of NADPH per hour per microgram of protein. Inhibitor stock solutions were prepared in 0.1% DMSO and diluted to a final DMSO concentration of 0.003% in the reaction mixture at most to avoid enzyme inhibition by this solvent. Inhibitory constants (Ki) were calculated by non-linear fitting of initial velocities. Maximum inhibition could not be achieved since final inhibitor concentrations were limited by DMSO.
Supplementary file pone.0235990.s002.tif: S2 Fig CYP2E1 inhibition by data base inhibitors. To ascertain whether an imidazole containing compound is already commercially available and better suited for development as a drug can-didate, we performed a large virtual library screening of the ZINK database. We found 14,738 hits. The 5,261 commercially available compounds could be classified as 4,710 synthetic and 551 natural molecules. After docking and final scoring process, the seven best synthetic and the three best natural candidates were purchased and tested in vitro for their potential to inhibit CYP2E1 activity. Different concentrations of these compounds dissolved in DMSO were added to 110 μM p-Nitrophenol in 100 mM HEPES buffer pH 7.6 and SUPERSOMES™ with 50 nM human CYP 2E1 to calculate relative activity values. […] 20 μM corresponds to a DMSO volume of 0.02% (v/v). (TIF) Click here for additional data file.

[4] = system: cholesterol synthesis; parameters: method as in printed; settings: high concentrations (> or =1.0 mmol/L); ref not given; cited from earlier work
[5] = system: ethanol-fed Wistar rats; assay: Liver histopathology of ethanol-fed rats; assay type: in vivo, rat; settings: I-ol, I-an in their higher concentrations; UDCA 40 mg/kg b.w.; H.E. staining
Description: (§1) In the first two weeks rats of all groups–with the exception of group 1 –were fed with LDC diet plus maltodextrin in an appropriate amount to adapt the animals to the liquid diet. Group 2 is the second control group in which the isocaloric diet was administered for further 10 weeks until the end of the experiment. […] The test compounds I-ol, I-an and UDCA were dissolved in a 0.8% aqueous HPMC gel to obtain the appropriate concentrations: (1) I-ol with 0.4, 4 and 40 mg/kg b. w. (2) I-an with 0.4, 4 and 40 mg/kg b. w. (3) UDCA with 40 mg/kg b. w. Rats of group 2 and 3 received only HPMC as a placebo. The LDC diets were fed ad libitum and their intake per cage was controlled daily. The corresponding bottles were stored in the cages from 08:00 a. m. until 06:00 p. m. and replaced by drinking water bottles overnight until 08:00 a. m. in the next morning. Every day at the same time, the test compounds or only HPMC were administered intragastrically by oral gavage with an administration volume of 2 ml/kg b. w. After ten weeks of treatment, the rats were anesthetized with an intraperitoneal injection of a 5% pentobarbital solution and then killed by aorta scarification. Their livers were dissected and liver pieces frozen and stored in liquid nitrogen. A part of the liver was fixed for histological investigations. Blood was collected before sacrifice, centrifuged for serum preparation and finally stored in liquid nitrogen.
Liver samples were selected randomly, fixed in Bouin`s solution and embedded in paraffin wax. Histological sections were prepared and stained with haematoxylin and eosin. Other liver samples were fixed in a solution containing formaldehyde, paraformaldehyde and glutaraldehyde with a subsequent post-fixation in 1% osmium containing phosphate buffer pH 7.4 for further analysis. Liver tissue was embedded in a mixture of butyl-methyl-metacrylates. Semifine sections of 0.5–1.0 μm were stained with Asur II, methylen blue and basic fuxine.

[6] = cited from earlier work
[7] = system: ethanol-fed Wistar rats; assay: Liver and serum lipid parameters of ethanol-fed rats; assay type: in vivo, rat
Source text: (§2) A total of 68 female Wistar rats (Institute of Pharmacology and Biochemistry Breeding House, Minsk, Belarus) aged 80–90 days and weighting 180–200 g at the beginning of the experiments were used in the study. Each rat group (n = 6–8) was housed in a separate cage and had free access to the liquid diet during the full study period. Prior to the study, the animals were habituated for seven days to the cage conditions and experimental handling. The rats were maintained in a controlled experimental environment (20–25°C, 40–50% humidity, 12 h light per day, room with a 12-h light/dark cycle).
(§3) Rats were divided into ten groups characterized by the diet and the test compounds (S1 Table). Group 1 is the first control group in which a normal solid standard diet was fed for 12 weeks. All other groups received the liquid Lieber-DeCarli (LDC) diet (S2 Table), which combines food and drink in a liquid manner. It was prepared by ssniff Spezialdiäten GmbH, Soest. The addition of maltodextrin to this diet should compensate the pure caloric effect of ethanol, whereby 1.77 g maltodextrin replaces 1 g ethanol. The calorie value of both the control and ethanol diets was the same: 35% calories from fat, 11% from carbohydrates, 18% from protein and 36% from ethanol.
as §1
(§4) The serum marker enzyme activities, alanine aminotransferase (ALT), aspartate aminotransferase (AST), alkaline phosphatase (AP) and gamma-glutamyltransferase (γ-GT) as well as triglycerides and bilirubin were measured according to manufacturer’s instructions using standard commercial kits from Lachema (PLIVA-Lachema Diagnostika, Czech Republic). Serum concentrations of leptin, adiponectin and TNF-alpha were analyzed using commercial ELISA test kits: BioCat GmbH (Heidelberg, German) for adiponectin and TNF-alpha, BioVendor Laboratory Medicine Inc. (Brno, Czech Republic) for leptin. Insulin serum concentration was determined by radioimmunoassay using the commercially available kit RIO-insulin-PG-J125 (IBOCH, Minsk, Belarus). Glucose serum concentration was determined by the Accu-Check Active blood glucose testing system from Roche-Diagnostics GmbH (Mannheim, Germany).
Lipids were extracted with a chloroform: methanol mixture (2:1 v/v). Neutral lipids and phospholipids were separated into classes by thin-layer chromatography (TLC). Lipid fractions (triglycerides, cholesterol and its fractions) were measured in extracts from scraped spots by routine methods using the appropriate commercial kits. […]

[8] = system: ethanol-fed Wistar rats; assay: Oxidative stress parameters in liver of ethanol-fed rats (Lieber-DeCarli diet); assay type: in vivo; settings: rat liver
Source text: as §2, §3, §1
The generation of reactive oxygen species (ROS) in rat liver was evaluated by NADPH-induced chemiluminescence with amplification by both luminol for the detection of superoxide (SRA) radical anion and lucigenin detecting hydrogen peroxide as described by Müller-Peddinhaus. In short, liver pieces were homogenized in 0.1 M sodium phosphate buffer pH 7.4. The homogenates were centrifuged at 9,000 x g at 0°C and aliquots were used for the measurement. Reduced glutathione (GSH) was determined by a modified Ellman`s method: 0.2 ml of the liver homogenates’ supernatant were added to 1.6 ml of an EDTA-/sodium […] solution. The absorbance was read at […] against blanks. GSH solution—prepared immediately before use—served as a standard. End products of the lipid peroxidation reaction are equivalent to TBARS (thiobarbituric acid-reacting substances) and their concentration was measured according to Buege et al.. The enzymatic activity of cytosolic glutathione peroxidase (GPx) and microsomal glutathione reductase (GR) were determined as described by Buko at al.. Catalase activity was evaluated by spectrophotometric measurement using hydrogen peroxide as a substrate according to Beers et al.. […]

[9] = system: ethanol-fed Wistar rats; assay: Serum liver enzyme activities of ethanol-fed rats; assay type: in vivo, rat
Source text: as §2, §3, §1, §4

[10] = literature survey, ref not given
[11] = liver, average over doses (UDCA 40 mg/kg)
[12] = serum, average over doses (UDCA 40 mg/kg)
[13] = average over 0.4/4/40 mg/kg b.w. (UDCA 40 mg/kg), oral, 10 weeks
[14] = average over doses (UDCA 40 mg/kg)

T1 sequence (P05181 whole entry): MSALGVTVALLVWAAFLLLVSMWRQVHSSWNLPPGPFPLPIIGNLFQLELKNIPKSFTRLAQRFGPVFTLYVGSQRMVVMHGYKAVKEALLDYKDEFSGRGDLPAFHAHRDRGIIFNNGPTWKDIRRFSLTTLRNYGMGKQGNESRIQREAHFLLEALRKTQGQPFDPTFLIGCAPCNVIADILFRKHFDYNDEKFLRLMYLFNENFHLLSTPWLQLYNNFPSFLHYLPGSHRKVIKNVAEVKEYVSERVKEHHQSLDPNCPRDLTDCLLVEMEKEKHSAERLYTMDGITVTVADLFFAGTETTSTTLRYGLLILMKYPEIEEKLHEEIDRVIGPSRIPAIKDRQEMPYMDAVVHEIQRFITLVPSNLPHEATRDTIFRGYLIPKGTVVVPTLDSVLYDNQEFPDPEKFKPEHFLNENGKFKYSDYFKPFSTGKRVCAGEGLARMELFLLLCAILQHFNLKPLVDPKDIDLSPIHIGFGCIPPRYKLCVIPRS

Compound: O=C(O)CCCCCCCCCCCn1ccnc1 [12 (imidazolyl) dodecanoic acids, 12-(imidazolyl)-dodecanoic acid]
affinity to CYP2E1 compared to other ω imidazolyl alkanoic acids (in words) ([1]; ref Porubsky, Battaile et al. 2010): highest affinity

Compound: C[N+](C)(C)CC(=O)O [Betaine]
effect on CYP2E1 activity (in words) [2, 10]: Betaine reduces CYP2E1 activity only to a minor extend, while attenuating ASH. People with high cholesterol should use betaine anhydrous cautiously.

IC50 ([3]; solvent inhibition of CYP2E1): 0.065 % (v/v)
Compound: C[S+](C)[O-] [DMSO]

Compound: C=CCSSCC=C [Diallyl disulfide (DADS), Diallyl disulfide]
cholesterol synthesis (in words) [4]: abolished

Compound: OCCCCCCCCCCn1ccnc1 [I-decanol, 10-imidazolyl-1-decanol]
inhibitory effect on CYP2E1 (in words) ([3]; human CYP2E1 SUPERSOMES): almost identical

Compound: OCCCCCCCn1ccnc1 [I-heptanol, 7-imidazolyl-1-heptanol]
inhibitory effect on CYP2E1 (in words) ([3]; human CYP2E1 SUPERSOMES): dramatic decrease in inhibitory performance

inhibitory effect on CYP2E1 (in words) ([3]; human CYP2E1 SUPERSOMES): almost identical
Compound: OCCCCCCCCCn1ccnc1 [I-nonanol, 9-imidazolyl-1-nonanol]

Compound: C[N+](C)(C)CCOP(=O)([O-])OCCCCCCCCCCCCn1ccnc1 [I-phosphocholine, 12-Imidazolyl-dodecan-1-yl-phosphocholine]
pKi ([3]; human CYP2E1 SUPERSOMES, p-nitrophenol oxidation, competitive model with offset): 4.66

Compound: C[S+](CC[C@H](N)C(=O)[O-])C[C@H]1O[C@@H](n2cnc3c(N)ncnc32)[C@H](O)[C@@H]1O (stereo partly drawn) [S-adenosyl-L-methionine (SAM), S-adenosyl-L-methionine]
effect on CYP2E1 activity (in words) [2, 10]: CYP2E1 activity (SAM is a non-competitive inhibitor), reactive oxygen species, anti-fibrogenic action, clinical trial

Compound: C[S+]([O-])CCCCN=C=S (stereo not shown) [Sulforaphane]
effect on CYP2E1 activity (in words) [2, 10]: Sulforaphane does not inhibit CYP2E1 in the knockin mouse modell.

Compound: C[C@H](CCC(=O)O)[C@H]1CC[C@H]2[C@@H]3[C@@H](O)C[C@@H]4C[C@H](O)CC[C@]4(C)[C@H]3CC[C@]12C [UDCA, ursodeoxycholic acid, reference compound]
liver morphology (histopathology, in words) [5]: reduce the histopathological effects of ethanol in a comparable way
long-term high-dose safety finding ([6]; 28–30 mg/kg/day, patients with ulcerative colitis and PSC): increased risk of colorectal neoplasia
mortality at maximum follow-up versus no intervention group ([6]; network meta-analysis, alcoholic liver disease): higher
liver cholesterol decrease compared to disease group ([7]; liver, UDCA 40 mg/kg): 11%
reduction of ethanol effect on hepatic cholesterol ([7]; liver, UDCA 40 mg/kg): 78%
reduction of ethanol effect on hepatic triglycerides ([7]; liver, average over 0.4/4/40 mg/kg b.w. (UDCA 40 mg/kg), oral, 10 weeks): 55%
liver phospholipids decrease compared to disease group [7, 11]: 20%
liver triglycerides decrease compared to disease group [7, 11]: 31%
reduction of ethanol effect on hepatic phospholipids [7, 11]: completely eliminated
reduction of ethanol effect on serum LDL cholesterol ([7]; serum, UDCA 40 mg/kg): no significant effect
reduction of ethanol effect on serum VLDL ([7]; serum, UDCA 40 mg/kg): no statistically significant reduction
reduction of ethanol effect on serum triglycerides [7, 12]: 79%
serum triglycerides decrease compared to disease group [7, 12]: 39%
reduction of ethanol effect on hydrogen peroxide ([8]; I-ol, I-an 0.4/4/40 mg/kg b.w., UDCA 40 mg/kg, oral, 10 weeks): 46%
GPx activity decrease compared to disease group ([8]; UDCA 40 mg/kg b.w.): 21%
reduction of ethanol effect on TBARS ([8]; average over 0.4/4/40 mg/kg b.w. (UDCA 40 mg/kg)): no statistic significant reduction
reduction of ethanol effect on superoxide radical anion (SRA) ([8]; average over 0.4/4/40 mg/kg b.w. (UDCA 40 mg/kg), daily oral gavage, 10 weeks): no statistic significant reduction
hydrogen peroxide decrease compared to disease group [8, 13]: 32%
reduction of ethanol effect on reduced glutathione (GSH) [8, 13]: no statistically significant changes
reduction of ethanol effect on glutathione reductase (GR) activity [8, 14]: no statistically significant result
GPx activity below the reference value in healthy animals ([8]; highest concentration (UDCA 40 mg/kg b.w.)): 28%
reduction of ethanol effect on γ-GT activity ([9]; UDCA 40 mg/kg): 61%
ALT activity decrease compared to disease group [9, 14]: 33%
AP activity decrease compared to disease group [9, 14]: 20%
AST activity decrease compared to disease group [9, 14]: 19%
reduction of ethanol effect on AST activity [9, 14]: 83%
γ-GT activity decrease compared to disease group [9, 14]: 33%
reduction of ethanol effect on alkaline phosphatase (AP) activity ([9]; on average (UDCA 40 mg/kg)): 66%

Compound: O=C(O)CCCCCn1ccnc1 [ω-imidazolylhexanoic acid]
spin shift [1]: missing spin shift

Compound: Silymarin
effect on CYP2E1 activity (in words) [2]: Has no influence on CYP2E1 activity. Clinical trails with patients having alcoholic liver cirrhosis showed controversial results.
